# Earlier results in patent publication US20120309684A1, “CONJUGATES FOR DELIVERY OF BIOLOGICALLY ACTIVE COMPOUNDS” (ISIS INNOVATION LIMITED, priority 2009, published 2012).
# Experiments:
# dystrophin protein = conditions: seven weekly doses at 100 mg/kg, systemic intravenous
# [1] = tested on: cardiac compared with skeletal muscle
Substance,restoration of dystrophin protein with naked PMO (dystrophin protein),lower binding affinity for cardiac compared with skeletal muscle [1]
"GGCCAAACCTCGGCTTACCTGAAAT (all phosphorodiamidate morpholino (PMO); Tested constructs carry cell-penetrating peptides (B, MSP) conjugated to PMO)",moderate restoration,–
ASSLNIA (Sequence for inclusion in target-delivery peptide) [MSP],–,2-3 fold
